US10172832B2, “Amide derivatives of N-urea substituted amino acids as formyl peptide receptor like-1 (FPRL-1) receptor modulators” (Allergan, Inc., priority 2011, dated 2019)

Biological target: T1, FPRL-1 (Homo sapiens, UniProt P25090)
T1 construct: expressed in transfected cells
T1 sequence (P25090 1-351): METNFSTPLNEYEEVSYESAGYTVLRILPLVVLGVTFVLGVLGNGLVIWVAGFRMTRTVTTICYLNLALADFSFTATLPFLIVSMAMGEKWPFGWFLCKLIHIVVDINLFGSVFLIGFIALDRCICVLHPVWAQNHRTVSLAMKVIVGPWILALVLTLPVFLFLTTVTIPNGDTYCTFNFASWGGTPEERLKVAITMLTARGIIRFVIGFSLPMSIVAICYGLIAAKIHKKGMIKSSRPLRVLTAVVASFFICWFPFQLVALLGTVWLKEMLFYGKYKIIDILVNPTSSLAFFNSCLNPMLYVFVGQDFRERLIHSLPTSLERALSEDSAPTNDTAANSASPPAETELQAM
Test: compound-induced calcium activity on FLIPR Tetra in CHO-Gα16 cells stably expressing FPRL1
Format: cell-based
Conditions: for FPRL-1 Ga16-CHO (Rel. eff.): relative efficacy; for EC50: tested 0.61 to 10,000 nM, read-out: FPRL-1 Ga16-CHO EC50
Method: CHO-Gα16 cells stably expressing FPRL1 were cultured in (F12, 10% FBS, 1% PSA, 400 μg/ml geneticin and 50 μg/ml hygromycin) and HEK-Gqi5 cells stable expressing FPR1 were cultured in (DMEM high glucose, 10% FBS, 1% PSA, 400 μg/ml geneticin and 50 μg/ml hygromycin). In general, the day before the experiment, 18,000 cells/well were plated in a 384-well clear bottom poly-d-lysine coated plate. The following day the screening compound-induced calcium activity was assayed on the FLIPR^Tetra. The drug plates were prepared in 384-well microplates using the EP3 and the MultiPROBE robotic liquid handling systems. Compounds were tested at concentrations ranging from 0.61 to 10,000 nM. Results are expressed as EC50 (nM) and efficacy values.

SMILES	FPRL-1 Ga16-CHO (Rel. eff.)	EC50
CC(C)C[C@H](NC(=O)Nc1ccc(Br)cc1)C(=O)NCC(=O)N(C)C [Compound 61, (2S)-2-{[(4-bromophenyl)carbamoyl]amino}-N-[2-(dimethylamino)-2-oxoethyl]-4-methylpentanamide]	(0.90)	1.4 nM
CC(C)C[C@H](NC(=O)Nc1ccc(C(F)(F)F)cc1)C(=O)NCC(=O)OC(C)(C)C [Compound 62, tert-butyl {[(2S)-4-methyl-2-({[4-(trifluoromethyl)phenyl]carbamoyl}amino)pentanoyl]amino}acetate]	(0.81)	309 nM
CC(C)C[C@H](NC(=O)Nc1ccc(C(F)(F)F)cc1)C(=O)NCC(=O)O [Compound 63, {[(2S)-4-methyl-2-({[4-(trifluoromethyl)phenyl]carbamoyl}amino)pentanoyl]amino}acetic acid]	(0.99)	1.8 nM
CC[C@@H](C)[C@@H](NC(=O)Nc1ccc(Br)cc1)C(=O)NCC(=O)OC(C)(C)C [Compound 64, tert-butyl {[(2R,3R)-2-{[(4-bromophenyl)carbamoyl]amino}-3-methylpentanoyl]amino}acetate]	(0.44)	3970 nM
CC[C@@H](C)[C@@H](NC(=O)Nc1ccc(Br)cc1)C(=O)NCC(=O)O [Compound 65, {[(2R,3R)-2-{[(4-bromophenyl)carbamoyl]amino}-3-methylpentanoyl]amino}acetic acid]	(0.45)	19300 nM
CC(C)C[C@@H](NC(=O)Nc1ccc(Br)cc1)C(=O)NCC(=O)OC(C)(C)C [Compound 66, tert-butyl {[(2R)-2-{[(4-bromophenyl)carbamoyl]amino}-4-methylpentanoyl]amino}acetate]	(0.92)	3660 nM
CSc1ccc(NC(=O)N[C@@H](CC(C)C)C(=O)NCC(=O)O)cc1 [Compound 70, {[(2S)-4-methyl-2-({[4-(methylsulfanyl)phenyl]carbamoyl}amino)pentanoyl]amino}acetic acid]	(1.05)	2.95 nM
CC(C)C[C@H](NC(=O)Nc1ccc(SC(F)(F)F)cc1)C(=O)NCC(=O)OC(C)(C)C [Compound 71, tert-butyl ({(2S)-4-methyl-2-[({4-[(trifluoromethyl)sulfanyl]phenyl}carbamoyl)amino]pentanoyl}amino)acetate]	(0.78)	3100 nM
CC(C)C[C@H](NC(=O)Nc1ccc(SC(F)(F)F)cc1)C(=O)NCC(=O)O [Compound 72, ({(2S)-4-methyl-2-[({4-[(trifluoromethyl)sulfanyl]phenyl}carbamoyl)amino]pentanoyl}amino)acetic acid]	(1.07)	560 nM
CC(C)C[C@H](NC(=O)Nc1ccc(Br)cc1)C(=O)NC(C)(C)C(=O)O [Compound 74, 2-{[(2S)-2-{[(4-bromophenyl)carbamoyl]amino}-4-methylpentanoyl]amino}-2-methylpropanoic acid]	(0.96)	1 nM
CC(C)C[C@H](NC(=O)Nc1ccc([S+](C)[O-])cc1)C(=O)NCC(=O)OC(C)(C)C (stereo partly drawn) [Compound 75, tert-butyl {[(2S)-4-methyl-2-({[4-(methylsulfinyl)phenyl]carbamoyl}amino)pentanoyl]amino}acetate]	(0.97)	668 nM
CC(C)C[C@H](NC(=O)Nc1ccc(S(C)(=O)=O)cc1)C(=O)NCC(=O)OC(C)(C)C [Compound 76, tert-butyl {[(2S)-4-methyl-2-({[4-(methylsulfonyl)phenyl]carbamoyl}amino)pentanoyl]amino}acetate]	(0.90)	1080 nM
CC(C)C[C@H](NC(=O)Nc1ccc(S(C)(=O)=O)cc1)C(=O)NCC(=O)O [Compound 78, {[(2S)-4-methyl-2-({[4-(methylsulfonyl)phenyl]carbamoyl}amino)pentanoyl]amino}acetic acid]	(1.12)	459 nM
CC(C)C[C@H](NC(=O)Nc1ccc(C(F)(F)F)cc1)C(=O)NC(C)(C)C(=O)OC(C)(C)C [Compound 79, tert-butyl 2-methyl-2-{[(2S)-4-methyl-2-({[4-(trifluoromethyl)phenyl]carbamoyl}amino)pentanoyl]amino}propanoate]	(1.07)	1020 nM
CC(C)(C)OC(=O)CNC(=O)[C@H](CCS(C)(=O)=O)NC(=O)Nc1ccc(Br)cc1 [Compound 81, tert-butyl {[(2S)-2-{[(4-bromophenyl)carbamoyl]amino}-4-(methylsulfonyl)butanoyl]amino}acetate]	(0.97)	1240 nM
CSCC[C@H](NC(=O)Nc1ccc(Br)cc1)C(=O)NCC(=O)O [Compound 82, {[(2S)-2-{[(4-bromophenyl)carbamoyl]amino}-4-(methylsulfanyl)butanoyl]amino}acetic acid]	(1.03)	7 nM
CC(C)(C)OC(=O)CNC(=O)C(Cc1c[nH]cn1)NC(=O)Nc1ccc(Br)cc1 (stereo not drawn) [Compound 84, tert-butyl {[2-{[(4-bromophenyl)carbamoyl]amino}-3-(1H-imidazol-4-yl)propanoyl]amino}acetate]	(0.95)	263 nM
CC(C)C[C@@H](NC(=O)Nc1ccc(Br)cc1)C(=O)NC(C)(C)C(=O)OC(C)(C)C [Compound 86, tert-butyl 2-{[(2R)-2-{[(4-bromophenyl)carbamoyl]amino}-4-methylpentanoyl]amino}-2-methylpropanoate]	(0.74)	2730 nM

More lines, in order of falling EC50, values ahead:

FPRL-1 Ga16-CHO (Rel. eff.)	EC50	SMILES
(0.99)	480 nM	CC(C)(NC(=O)Nc1ccc(Br)cc1)C(=O)NCC(=O)O [Compound 60, {[2-{[(4-bromophenyl)carbamoyl]amino}-2-methylpropanoyl]amino}acetic acid]
(1.21)	358 nM	CC(C)C[C@H](NC(=O)Nc1ccc([S+](C)[O-])cc1)C(=O)NCC(=O)O (stereo partly drawn) [Compound 77, {[(2S)-4-methyl-2-({[4-(methylsulfinyl)phenyl]carbamoyl}amino)pentanoyl]amino}acetic acid]
(1.01)	247 nM	CS(=O)(=O)CC[C@H](NC(=O)Nc1ccc(Br)cc1)C(=O)NCC(=O)O [Compound 83, {[(2S)-2-{[(4-bromophenyl)carbamoyl]amino}-4-(methylsulfonyl)butanoyl]amino}acetic acid]
(1.16)	133 nM	CC(C)C[C@H](NC(=O)Nc1ccc(Br)cc1)C(=O)NC(C)(C)C(=O)OC(C)(C)C [Compound 73, tert-butyl 2-{[(2S)-2-{[(4-bromophenyl)carbamoyl]amino}-4-methylpentanoyl]amino}-2-methylpropanoate]
(0.98)	127 nM	CSCC[C@H](NC(=O)Nc1ccc(Br)cc1)C(=O)NCC(=O)OC(C)(C)C [Compound 80, tert-butyl {[(2S)-2-{[(4-bromophenyl)carbamoyl]amino}-4-(methylsulfanyl)butanoyl]amino}acetate]
(0.98)	116 nM	CSc1ccc(NC(=O)N[C@@H](CC(C)C)C(=O)NCC(=O)OC(C)(C)C)cc1 [Compound 68, tert-butyl {[(2S)-4-methyl-2-({[4-(methylsulfanyl)phenyl]carbamoyl}amino)pentanoyl]amino}acetate]
(1.02)	114 nM	CC(C)(C)OC(=O)CNC(=O)C(C)(C)NC(=O)Nc1ccc(Br)cc1 [Compound 59, tert-butyl {[2-{[(4-bromophenyl)carbamoyl]amino}-2-methylpropanoyl]amino}acetate]
(1.03)	31 nM	CCC(CC)(NC(=O)Nc1ccc(Br)cc1)C(=O)NCC(=O)OC(C)(C)C [Compound 57, tert-butyl {[2-{[(4-bromophenyl)carbamoyl]amino}-2-ethylbutanoyl]amino}acetate]
(0.98)	22 nM	CC(C)CC(C)(NC(=O)Nc1ccc(Br)cc1)C(=O)NCC(=O)O (stereo not drawn) [Compound 56, {[2-{[(4-bromophenyl)carbamoyl]amino}-2,4-dimethylpentanoyl]amino}acetic acid]
(1.04)	19 nM	CCC(CC)(NC(=O)Nc1ccc(Br)cc1)C(=O)NCC(=O)O [Compound 58, {[2-{[(4-bromophenyl)carbamoyl]amino}-2-ethylbutanoyl]amino}acetic acid]
(0.95)	10 nM	O=C(O)CNC(=O)C(Cc1c[nH]cn1)NC(=O)Nc1ccc(Br)cc1 (stereo not drawn) [Compound 85, {[2-{[(4-bromophenyl)carbamoyl]amino}-3-(1H-imidazol-4-yl)propanoyl]amino}acetic acid]
(0.92)	2.3 nM	CC(C)C[C@H](NC(=O)Nc1ccc(C(F)(F)F)cc1)C(=O)NC(C)(C)C(=O)O [Compound 69, 2-methyl-2-{[(2S)-4-methyl-2-({[4-(trifluoromethyl)phenyl]carbamoyl}amino)pentanoyl]amino}propanoic acid]
